Measurements taken from patent US12569509B2, “Method and composition for preventing and treating viral infections” (priority 2017, dated 2026).
Several values for one entry are separate records, joined by “and”; a condition that tells them apart may be missing. Equal entries are not always repeated.

Key:
human PBMC = experiment: LPS stimulated cytokine secretion in human PBMC pretreated with compounds (Phase 2); format: cell-based; parameters: TNF-α concentration in supernatant / IL-1β concentration in supernatant / IL-6 concentration in supernatant / IL-2 concentration in supernatant / IFN-g concentration in supernatant: unit of the concentration uncertain; settings: for IL-1β Mean Fold-Change (Relative to LPS alone) / IL-6 Mean Fold-Change (Relative to LPS alone) / TNF-α Mean Fold-Change (Relative to LPS alone): 1 ng/mL LPS stimulation for 8 hours, means from 3 donors; for IL-2 concentration in supernatant / TNF-α concentration in supernatant / IL-1β concentration in supernatant / IFN-g concentration in supernatant / IL-6 concentration in supernatant: 8-hour 1 ng/mL LPS stimulation; for IL-2 concentration in supernatant: LLOQ = 1.698 pg/mL; for TNF-α concentration in supernatant: LLOQ = 2.018 pg/mL; for IL-1β concentration in supernatant: LLOQ = 2.299 pg/mL; for IFN-g concentration in supernatant: LLOQ = 2.792 pg/mL; for IL-6 concentration in supernatant: LLOQ = 0.831; for Effect on LPS stimulated cytokine secretion: any conditions tested
Description: Results are represented as fold-change relative to LPS treatment alone for each cytokine calculated by means from 3 separate donors.
RPMI medium alone, RPMI supplemented with 0.2% DMSO (to mimic treatment conditions) or LPS stimulation alone were used as controls.
Except for the two negative control conditions, all 3 donors responded to all experimental conditions tested with the secretion of TNF-α, IL-1β, and IL-6 albeit with a high degree of variability.

RecQ helicase = molecular target: T1, RecQ helicase (Escherichia coli, UniProt P15043); experiment: Cell-free fluorescence molecular beacon helicase assay; format: biochemical, E. coli; parameters: Average rate of reaction / Rate (Triplicate): unit: RFU/min; settings: for Average rate of reaction: mean of triplicate; for Rate (Triplicate): rate of reaction=(F0-F35)/35; for Fluorescence at 35 minutes, Run 2 / Fluorescence at time 0, Run 2: duplicate, listed as M; for Change in helicase activity compared to the DMSO control: any of the tested concentrations (0.06-200 μg/mL)
T1 construct: a full-length E. coli helicase, RecQ, was used
T1 sequence (P15043 whole entry): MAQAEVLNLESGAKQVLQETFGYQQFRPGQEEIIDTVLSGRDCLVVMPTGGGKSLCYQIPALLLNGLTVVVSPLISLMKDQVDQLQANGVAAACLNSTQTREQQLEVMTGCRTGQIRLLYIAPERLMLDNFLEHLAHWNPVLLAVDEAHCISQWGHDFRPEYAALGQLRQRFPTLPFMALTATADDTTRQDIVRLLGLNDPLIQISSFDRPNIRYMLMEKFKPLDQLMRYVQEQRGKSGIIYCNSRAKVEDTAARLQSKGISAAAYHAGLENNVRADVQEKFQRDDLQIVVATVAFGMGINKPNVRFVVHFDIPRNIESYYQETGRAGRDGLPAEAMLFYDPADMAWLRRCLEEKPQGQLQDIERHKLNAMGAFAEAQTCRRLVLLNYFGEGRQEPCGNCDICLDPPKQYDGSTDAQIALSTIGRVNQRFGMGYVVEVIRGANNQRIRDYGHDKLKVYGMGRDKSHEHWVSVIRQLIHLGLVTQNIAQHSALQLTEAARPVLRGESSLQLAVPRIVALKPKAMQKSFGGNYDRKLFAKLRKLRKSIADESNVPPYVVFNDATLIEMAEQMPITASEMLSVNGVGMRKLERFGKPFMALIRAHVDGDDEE

[1] = TA 0.2 μg/mL (plate column 5, wells A-C)
[2] = TA 2 μg/mL (plate column 7, wells A-C)
[3] = TA 6 μg/mL (plate column 8, wells A-C)
[4] = TA 200 μg/mL (plate column 11, wells A-C)
[5] = TA 200 + Buffer (plate column 12, wells A-C)

O=c1c(O)c(-c2cc(O)c(O)c(O)c2)oc2cc(O)cc(O)c12 [Myricetin]
IL-1β Mean Fold-Change (Relative to LPS alone) (human PBMC; 10 mM (so in the source)): 1.10 | IL-6 Mean Fold-Change (Relative to LPS alone) (human PBMC; 10 mM (so in the source)): 0.97 | TNF-α Mean Fold-Change (Relative to LPS alone) (human PBMC; 10 mM (so in the source)): 0.90 | IL-1β Mean Fold-Change (Relative to LPS alone) (human PBMC; 100 mM (so in the source)): 1.09 | IL-6 Mean Fold-Change (Relative to LPS alone) (human PBMC; 100 mM (so in the source)): 0.88 | TNF-α Mean Fold-Change (Relative to LPS alone) (human PBMC; 100 mM (so in the source)): 0.93 | IL-1β Mean Fold-Change (Relative to LPS alone) (human PBMC; 200 mM (so in the source)): 0.98 | IL-6 Mean Fold-Change (Relative to LPS alone) (human PBMC; 200 mM (so in the source)): 0.75 | TNF-α Mean Fold-Change (Relative to LPS alone) (human PBMC; 200 mM (so in the source)): 0.86 | IL-2 concentration in supernatant (human PBMC; Donor 1, 10 (unit uncertain)): <LLOQ | TNF-α concentration in supernatant (human PBMC; Donor 1, 10 (unit uncertain)): 1496.9 pg/mL | IL-1β concentration in supernatant (human PBMC; Donor 1, 10 (unit uncertain)): 3079.47 pg/mL | IFN-g concentration in supernatant (human PBMC; Donor 1, 10 (unit uncertain)): <LLOQ | IL-6 concentration in supernatant (human PBMC; Donor 1, 10 (unit uncertain)): 884.11 pg/mL | IL-2 concentration in supernatant (human PBMC; Donor 1, 100 (unit uncertain)): <LLOQ | TNF-α concentration in supernatant (human PBMC; Donor 1, 100 (unit uncertain)): 1251.59 pg/mL | IL-1β concentration in supernatant (human PBMC; Donor 1, 100 (unit uncertain)): 2858.12 pg/mL | IFN-g concentration in supernatant (human PBMC; Donor 1, 100 (unit uncertain)): <LLOQ | IL-6 concentration in supernatant (human PBMC; Donor 1, 100 (unit uncertain)): 767.01 pg/mL | IL-2 concentration in supernatant (human PBMC; Donor 1, 200 (unit uncertain)): <LLOQ | TNF-α concentration in supernatant (human PBMC; Donor 1, 200 (unit uncertain)): 1811.82 pg/mL | IL-1β concentration in supernatant (human PBMC; Donor 1, 200 (unit uncertain)): 2923.92 pg/mL | IFN-g concentration in supernatant (human PBMC; Donor 1, 200 (unit uncertain)): <LLOQ | IL-6 concentration in supernatant (human PBMC; Donor 1, 200 (unit uncertain)): 781.22 pg/mL | IL-2 concentration in supernatant (human PBMC; Donor 2, 10 (unit uncertain)): <LLOQ | TNF-α concentration in supernatant (human PBMC; Donor 2, 10 (unit uncertain)): 1006.28 pg/mL | IL-1β concentration in supernatant (human PBMC; Donor 2, 10 (unit uncertain)): 2517.48 pg/mL | IFN-g concentration in supernatant (human PBMC; Donor 2, 10 (unit uncertain)): <LLOQ | IL-6 concentration in supernatant (human PBMC; Donor 2, 10 (unit uncertain)): 685.49 pg/mL | IL-2 concentration in supernatant (human PBMC; Donor 2, 100 (unit uncertain)): <LLOQ | TNF-α concentration in supernatant (human PBMC; Donor 2, 100 (unit uncertain)): 1597.26 pg/mL | IL-1β concentration in supernatant (human PBMC; Donor 2, 100 (unit uncertain)): 3046.49 pg/mL | IFN-g concentration in supernatant (human PBMC; Donor 2, 100 (unit uncertain)): <LLOQ | IL-6 concentration in supernatant (human PBMC; Donor 2, 100 (unit uncertain)): 833.84 pg/mL | IL-2 concentration in supernatant (human PBMC; Donor 2, 200 (unit uncertain)): <LLOQ | TNF-α concentration in supernatant (human PBMC; Donor 2, 200 (unit uncertain)): 1021.2 pg/mL | IL-1β concentration in supernatant (human PBMC; Donor 2, 200 (unit uncertain)): 2501.45 pg/mL | IFN-g concentration in supernatant (human PBMC; Donor 2, 200 (unit uncertain)): <LLOQ | IL-6 concentration in supernatant (human PBMC; Donor 2, 200 (unit uncertain)): 649.98 pg/mL | IL-2 concentration in supernatant (human PBMC; Donor 3, 10 (unit uncertain)): <LLOQ | TNF-α concentration in supernatant (human PBMC; Donor 3, 10 (unit uncertain)): 4121.89 pg/mL | IL-1β concentration in supernatant (human PBMC; Donor 3, 10 (unit uncertain)): 3880.95 pg/mL | IFN-g concentration in supernatant (human PBMC; Donor 3, 10 (unit uncertain)): <LLOQ | IL-6 concentration in supernatant (human PBMC; Donor 3, 10 (unit uncertain)): 685.49 pg/mL | IL-2 concentration in supernatant (human PBMC; Donor 3, 100 (unit uncertain)): <LLOQ | TNF-α concentration in supernatant (human PBMC; Donor 3, 100 (unit uncertain)): 3225.93 pg/mL | IL-1β concentration in supernatant (human PBMC; Donor 3, 100 (unit uncertain)): 3293.89 pg/mL | IFN-g concentration in supernatant (human PBMC; Donor 3, 100 (unit uncertain)): <LLOQ | IL-6 concentration in supernatant (human PBMC; Donor 3, 100 (unit uncertain)): 833.84 pg/mL | IL-2 concentration in supernatant (human PBMC; Donor 3, 200 (unit uncertain)): <LLOQ | TNF-α concentration in supernatant (human PBMC; Donor 3, 200 (unit uncertain)): 2528.98 pg/mL | IL-1β concentration in supernatant (human PBMC; Donor 3, 200 (unit uncertain)): 2756.81 pg/mL | IFN-g concentration in supernatant (human PBMC; Donor 3, 200 (unit uncertain)): <LLOQ | IL-6 concentration in supernatant (human PBMC; Donor 3, 200 (unit uncertain)): 649.98 pg/mL | Effect on LPS stimulated cytokine secretion (human PBMC): did not appear to have any effect | Effect on LPS stimulated cytokine secretion (human PBMC; listed as myricetin): no effect | Average rate of reaction (RecQ helicase; 0.06 μg/mL): 119.381 | Rate (Triplicate) (RecQ helicase; 0.06 μg/mL): 156.0857 and 120.9143 and 81.14 | Fluorescence at 35 minutes, Run 2 (RecQ helicase; 0.2 μg/mL): 3820 RFU and 2972 RFU | Fluorescence at time 0, Run 2 (RecQ helicase; 0.2 μg/mL): 5788 RFU and 4210 RFU | Average rate of reaction (RecQ helicase; 0.2 μg/mL): 54.7 | Fluorescence at 35 minutes, Run 2 (RecQ helicase; 0.6 μg/mL): 4426 RFU and 3662 RFU | Fluorescence at time 0, Run 2 (RecQ helicase; 0.6 μg/mL): 9244 RFU and 9661 RFU | Average rate of reaction (RecQ helicase; 0.6 μg/mL): 39.68 | Fluorescence at 35 minutes, Run 2 (RecQ helicase; 2 μg/mL): 4289 RFU and 4448 RFU | Fluorescence at time 0, Run 2 (RecQ helicase; 2 μg/mL): 8530 RFU and 9826 RFU | Average rate of reaction (RecQ helicase; 2.0 μg/mL): 98.63 | Fluorescence at 35 minutes, Run 2 (RecQ helicase; 6 μg/mL): 3604 RFU and 4445 RFU | Average rate of reaction (RecQ helicase; 6.0 μg/mL): 107.0439 | Fluorescence at 35 minutes, Run 2 (RecQ helicase; 20 μg/mL): 5025 RFU and 5336 RFU | Fluorescence at time 0, Run 2 (RecQ helicase; 20 μg/mL): 5022 RFU and 5466 RFU | Average rate of reaction (RecQ helicase; 20.0 μg/mL): 42.49 | Fluorescence at 35 minutes, Run 2 (RecQ helicase; 60 μg/mL): 4100 RFU and 3834 RFU | Average rate of reaction (RecQ helicase; 60.0 μg/mL): 85 | Fluorescence at 35 minutes, Run 2 (RecQ helicase; 200 μg/mL): 2562 RFU and 2378 RFU | Fluorescence at time 0, Run 2 (RecQ helicase; 200 μg/mL): 4555 RFU and 3893 RFU | Average rate of reaction (RecQ helicase; 200.0 μg/mL): 69.46 | Rate (Triplicate) (RecQ helicase; 200.0 μg/mL): 81.98 and 52.34 and 74.0595 | Fluorescence at 0:00:00, Run 1 (RecQ helicase; TA 0.06 μg/mL (plate column 4, wells A-C)): 14946 RFU and 8957 RFU and 8828 RFU | Fluorescence at 0:00:00, Run 1 (RecQ helicase; [1]): 10047 RFU and 9670 RFU and 6773 RFU | Fluorescence at 0:35:00, Run 1 (RecQ helicase; [1]): 7144 RFU and 8199 RFU and 5403 RFU | Fluorescence at 0:35:00, Run 1 (RecQ helicase; TA 0.6 μg/mL (plate column 6, wells A-C)): 7961 RFU and 4234 RFU and 5238 RFU | Fluorescence at 0:00:00, Run 1 (RecQ helicase; [2]): 12406 RFU and 10235 RFU and 7932 RFU | Fluorescence at 0:35:00, Run 1 (RecQ helicase; [2]): 8386 RFU and 5162 RFU and 6669 RFU | Fluorescence at 0:00:00, Run 1 (RecQ helicase; [3]): 13174 RFU and 13286 RFU and 6908 RFU | Fluorescence at 0:35:00, Run 1 (RecQ helicase; [3]): 9109 RFU and 7022 RFU and 6649 RFU | Fluorescence at 0:35:00, Run 1 (RecQ helicase; TA 20 μg/mL (plate column 9, wells A-C)): 7412 RFU and 10338 RFU and 6947 RFU | Fluorescence at 0:35:00, Run 1 (RecQ helicase; TA 60 μg/mL (plate column 10, wells A-C)): 8883 RFU and 7317 RFU and 6795 RFU | Fluorescence at 0:00:00, Run 1 (RecQ helicase; [4]): 6608 RFU and 4850 RFU and 6196 RFU | Fluorescence at 0:35:00, Run 1 (RecQ helicase; [4]): 5004 RFU and 3826 RFU and 4747 RFU | Fluorescence at 0:00:00, Run 1 (RecQ helicase; [5]): 5165 RFU and 8965 RFU and 8207 RFU | Fluorescence at 0:35:00, Run 1 (RecQ helicase; [5]): 3022 RFU and 4495 RFU and 5122 RFU | Change in helicase activity compared to the DMSO control (RecQ helicase): no observed consistent change | Change in helicase activity compared to the DMSO control (RecQ helicase; listed as myricetin): no effect
